We go through 25 compounds from patent US9150566B2, “2-(1,2,3-triazol-2-yl)benzamide and 3-(1,2,3-triazol-2-YL)picolinamide derivatives as orexin receptor antagonists” (ACTELION PHARMACEUTICALS LTD., priority 2011, dated 2015).

The target of data set [1] is human orexin-1 receptor (Homo sapiens (Human), UniProt O43613). The data set is described as follows: In vitro intracellular calcium measurements (FLIPR), antagonistic activity on orexin-1 receptor. As to conditions: read-out: IC50 OX1. It is filed as cell-based. A digest of the protocol:
(§1)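 CHO cells expressing human orexin-1 or orexin-2 receptor were seeded overnight, preincubated with antagonist for 120 min, then stimulated with agonist in a FLIPR Tetra.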
On the technique in general: A change in cytosolic calcium serves as a functional read-out for many receptors and channels.

For data set [2], the target named is human orexin-2 receptor (Homo sapiens (Human), UniProt O43614). Kind of data set: In vitro intracellular calcium measurements (FLIPR), antagonistic activity on orexin-2 receptor. To be noted: read-out: IC50 OX2. In kind it is cell-based. A digest of the protocol:
as §1

For data set [3], the target named is CYP3A4 (Homo sapiens (Human), UniProt P08684). The data set is described as follows: CYP3A4 inhibition assay (human liver microsomes, testosterone 6β-hydroxylation). To be noted: read-out: CYP3A4 IC50, 40 μM testosterone. In general terms: Microsomes from liver hold many membrane-bound enzymes, among them those of drug oxidation.
Where [4] appears, read: CHO cells expressing human orexin-1 receptor, FLIPR, 3 nM orexin-A agonist, 120 min antagonist incubation, geometric mean if determined several times.
Where [5] appears, read: CHO cells expressing human orexin-2 receptor, FLIPR, 3 nM orexin-A agonist, 120 min antagonist incubation, geometric mean if determined several times.

Usually IC50 stands for the midpoint of a concentration-inhibition curve.

Like-named read-outs stand apart in the source and are kept apart here.

Sequence of CYP3A4 (P08684 whole entry): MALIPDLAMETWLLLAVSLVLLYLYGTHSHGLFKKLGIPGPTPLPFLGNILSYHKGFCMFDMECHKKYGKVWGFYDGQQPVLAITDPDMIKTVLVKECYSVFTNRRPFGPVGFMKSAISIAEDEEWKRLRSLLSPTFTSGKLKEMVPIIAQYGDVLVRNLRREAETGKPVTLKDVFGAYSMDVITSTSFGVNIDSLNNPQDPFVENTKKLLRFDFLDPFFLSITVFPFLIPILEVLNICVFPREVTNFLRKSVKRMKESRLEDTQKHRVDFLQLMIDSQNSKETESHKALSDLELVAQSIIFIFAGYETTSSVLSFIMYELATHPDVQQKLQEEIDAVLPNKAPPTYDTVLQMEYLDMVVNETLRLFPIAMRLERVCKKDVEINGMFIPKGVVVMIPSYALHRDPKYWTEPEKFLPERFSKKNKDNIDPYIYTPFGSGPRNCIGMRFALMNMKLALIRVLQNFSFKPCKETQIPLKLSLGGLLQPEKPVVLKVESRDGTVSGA
Sequence of human orexin-1 receptor (O43613 whole entry): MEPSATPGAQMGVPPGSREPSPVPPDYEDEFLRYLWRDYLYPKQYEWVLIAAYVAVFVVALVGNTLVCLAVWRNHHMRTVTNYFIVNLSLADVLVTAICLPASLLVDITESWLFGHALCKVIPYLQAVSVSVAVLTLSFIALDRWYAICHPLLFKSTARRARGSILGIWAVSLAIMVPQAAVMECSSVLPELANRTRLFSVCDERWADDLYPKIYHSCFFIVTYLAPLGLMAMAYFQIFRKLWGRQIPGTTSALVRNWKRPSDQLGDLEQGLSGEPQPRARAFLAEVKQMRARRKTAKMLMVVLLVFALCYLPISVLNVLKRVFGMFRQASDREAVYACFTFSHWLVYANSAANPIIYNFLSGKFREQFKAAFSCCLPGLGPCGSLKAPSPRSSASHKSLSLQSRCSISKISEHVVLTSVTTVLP
Sequence of human orexin-2 receptor (O43614 whole entry): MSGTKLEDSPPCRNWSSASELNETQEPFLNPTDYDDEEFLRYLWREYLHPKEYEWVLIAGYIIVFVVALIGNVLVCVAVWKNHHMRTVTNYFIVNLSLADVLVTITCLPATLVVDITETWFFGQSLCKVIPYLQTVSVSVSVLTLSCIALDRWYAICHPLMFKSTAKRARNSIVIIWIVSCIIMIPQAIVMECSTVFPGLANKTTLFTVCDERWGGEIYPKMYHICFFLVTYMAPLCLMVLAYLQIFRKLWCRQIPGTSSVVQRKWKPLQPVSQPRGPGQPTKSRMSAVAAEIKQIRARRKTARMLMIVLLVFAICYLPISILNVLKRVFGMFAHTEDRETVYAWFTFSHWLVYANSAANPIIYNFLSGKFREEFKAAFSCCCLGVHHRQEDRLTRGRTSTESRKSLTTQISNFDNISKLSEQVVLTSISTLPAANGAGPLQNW

`Cc1ccc(-n2nccn2)c(C(=O)N2CCOC[C@H]2Cc2cc(-n3cccn3)ccc2C)c1` [Example 188, [(R)-3-(2-Methyl-5-pyrazol-1-yl-benzyl)-morpholin-4-yl]-(5-methyl-2-[1,2,3]triazol-2-yl-phenyl)-methanone]: the IC50 in data set [1] (setting [4]) was 21 nM; in data set [2] (setting [5]) it was 2130 nM; in data set [3], 14000 nM.

On to `Cc1ccc(C(=O)N2CCOC[C@H]2Cc2cc(-c3cccnn3)ccc2F)c(-n2nccn2)c1` [Example 166, [(R)-3-(2-Fluoro-5-pyridazin-3-yl-benzyl)-morpholin-4-yl]-(4-methyl-2-[1,2,3]triazol-2-yl-phenyl)-methanone], for which the results for the IC50 in data set [1] (setting [4]), in data set [2] (setting [5]) and in data set [3] were 13 nM, 1400 nM and 19000 nM, respectively.

Consider `COc1ccc(C[C@@H]2COCCN2C(=O)c2ccccc2-n2nccn2)cc1-c1ncon1` [Example 59, [(R)-3-(4-Methoxy-3-[1,2,4]oxadiazol-3-yl-benzyl)-morpholin-4-yl]-(2-[1,2,3]triazol-2-yl-phenyl)-methanone], for which the values for the IC50 in data set [1] (setting [4]), in data set [2] (setting [5]) and in data set [3] were 1 nM, 80 nM and 32000 nM, respectively.

Turning to `Cc1ccc(-n2nccn2)c(C(=O)N2[C@H](Cc3cccc(-n4nccn4)c3)COC[C@@H]2C)c1` [Example 73, [(3S,5R)-3-Methyl-5-(3-[1,2,3]triazol-2-yl-benzyl)-morpholin-4-yl]-(5-methyl-2-[1,2,3]triazol-2-yl-phenyl)-methanone], the IC50 came to 10 nM in data set [1] (setting [4]), 1850 nM in data set [2] (setting [5]) and 6800 nM in data set [3].

For `Cc1ccc(-n2nccn2)c(C(=O)N2CCOC[C@H]2Cc2cccc(-c3ccncc3)c2)c1` [Example 28, (5-Methyl-2-[1,2,3]triazol-2-yl-phenyl)-[(R)-3-(3-pyridin-4-yl-benzyl)-morpholin-4-yl]-methanone], the values for the IC50 in data set [1] (setting [4]), in data set [2] (setting [5]) and in data set [3] were 43 nM, 2110 nM and 300 nM, respectively.

Regarding `O=C(c1ccccc1-n1nccn1)N1CCOC[C@H]1Cc1cccc(-c2ncco2)c1` [Example 42, [(R)-3-(3-Oxazol-2-yl-benzyl)-morpholin-4-yl]-(2-[1,2,3]triazol-2-yl-phenyl)-methanone], the IC50 in data set [1] (setting [4]) is 34 nM; in data set [2] (setting [5]) it was 2010 nM; in data set [3], 5100 nM.

For `COc1cc(C(=O)N2CCOC[C@H]2Cc2cc(-n3nccn3)ccc2F)c(-n2nccn2)cc1C` [Example 134, [(R)-3-(2-Fluoro-5-[1,2,3]triazol-2-yl-benzyl)-morpholin-4-yl]-(5-methoxy-4-methyl-2-[1,2,3]triazol-2-yl-phenyl)-methanone], the figures for the IC50 in data set [1] (setting [4]), in data set [2] (setting [5]) and in data set [3] were 11 nM, 336 nM and 19000 nM, respectively.

Consider `COc1ccc(C[C@@H]2COCCN2C(=O)c2ccccc2-n2nccn2)cc1-c1cccnc1` [Example 4, [(R)-3-(4-Methoxy-3-pyridin-3-yl-benzyl)-morpholin-4-yl]-(2-[1,2,3]triazol-2-yl-phenyl)-methanone], for which the IC50 was 6 nM in data set [1] (setting [4]), 1880 nM in data set [2] (setting [5]) and 1200 nM in data set [3].

Turning to `Cc1ccc(-n2nccn2)c(C(=O)N2CCOC[C@H]2Cc2cc(-n3nccn3)ccc2Cl)c1` [Example 125, [(R)-3-(2-Chloro-5-[1,2,3]triazol-2-yl-benzyl)-morpholin-4-yl]-(5-methyl-2-[1,2,3]triazol-2-yl-phenyl)-methanone], the IC50 was 7 nM in data set [1] (setting [4]), 626 nM in data set [2] (setting [5]) and 22000 nM in data set [3].

With `O=C(c1ccc(F)cc1-n1nccn1)N1CCOC[C@H]1Cc1cccc(-n2nccn2)c1` [Example 36, (4-Fluoro-2-[1,2,3]triazol-2-yl-phenyl)-[(R)-3-(3-[1,2,3]triazol-2-yl-benzyl)-morpholin-4-yl]-methanone], the IC50 in data set [1] turned out to be 41 nM; in data set [2], 889 nM; in data set [3], 36000 nM.

Regarding `COc1ccc(-n2nccn2)c(C(=O)N2CCOC[C@H]2Cc2cc(-n3nccn3)ccc2F)c1` [Example 131, [(R)-3-(2-Fluoro-5-[1,2,3]triazol-2-yl-benzyl)-morpholin-4-yl]-(5-methoxy-2-[1,2,3]triazol-2-yl-phenyl)-methanone], the IC50 in data set [1] (setting [4]) was determined as 4 nM; in data set [2] (setting [5]), 1130 nM; in data set [3] it was 35000 nM.

With `Cc1ccc(-n2nccn2)c(C(=O)N2CCOC[C@H]2Cc2cccc(-n3cccn3)c2)c1` [Example 19, (5-Methyl-2-[1,2,3]triazol-2-yl-phenyl)-[(R)-3-(3-pyrazol-1-yl-benzyl)-morpholin-4-yl]-methanone], the IC50 in data set [1] (setting [4]) stood at 2 nM; in data set [2] (setting [5]), 369 nM; in data set [3], 32000 nM.

Consider `COc1ccc(C(=O)N2CCOC[C@H]2Cc2cccc(-n3nccn3)c2)c(-n2nccn2)c1` [Example 93, (4-Methoxy-2-[1,2,3]triazol-2-yl-phenyl)-[(R)-3-(3-[1,2,3]triazol-2-yl-benzyl)-morpholin-4-yl]-methanone], for which the IC50 in data set [1] was 5 nM; in data set [2], 2090 nM; in data set [3], more than 50000 nM.

Turning to `O=C(c1cccc(Cl)c1-n1nccn1)N1CCOC[C@H]1Cc1cc(-c2ncon2)ccc1F` [Example 180, (3-Chloro-2-[1,2,3]triazol-2-yl-phenyl)-[(R)-3-(2-fluoro-5-[1,2,4]oxadiazol-3-yl-benzyl)-morpholin-4-yl]-methanone], the half-maximal inhibitory concentration (IC50) in data set [1] (setting [4]) was determined as 19 nM; in data set [2] (setting [5]), 830 nM; in data set [3], 36000 nM.

As for `O=C(c1cc(Cl)ccc1-n1nccn1)N1CCOC[C@H]1Cc1cccc(-c2ncccn2)c1` [Example 51, (5-Chloro-2-[1,2,3]triazol-2-yl-phenyl)-[(R)-3-(3-pyrimidin-2-yl-benzyl)-morpholin-4-yl]-methanone], the IC50 was determined as 3 nM in data set [1] (setting [4]), 229 nM in data set [2] (setting [5]) and 20000 nM in data set [3].

`Cc1ccc(C(=O)N2CCOC[C@H]2Cc2cc(-c3ncon3)ccc2F)c(-n2nccn2)c1C` [Example 181, (3,4-Dimethyl-2-[1,2,3]triazol-2-yl-phenyl)-[(R)-3-(2-fluoro-5-[1,2,4]oxadiazol-3-yl-benzyl)-morpholin-4-yl]-methanone]: the IC50 in data set [1] (setting [4]) was determined as 11 nM; in data set [2] (setting [5]), 1570 nM; in data set [3] it was 36000 nM.

As for `O=C(c1cccc(Cl)c1-n1nccn1)N1CCOC[C@H]1Cc1cc(-n2nccn2)ccc1Cl` [Example 171, [(R)-3-(2-Chloro-5-[1,2,3]triazol-2-yl-benzyl)-morpholin-4-yl]-(3-chloro-2-[1,2,3]triazol-2-yl-phenyl)-methanone], the IC50 in data set [1] (setting [4]) is 10 nM; in data set [2] (setting [5]), 675 nM; in data set [3], 13000 nM.

Turning to `Cc1ccc(-n2nccn2)c(C(=O)N2CCOC[C@H]2Cc2cccc(-c3ccccn3)c2)c1` [Example 24, (5-Methyl-2-[1,2,3]triazol-2-yl-phenyl)-[(R)-3-(3-pyridin-2-yl-benzyl)-morpholin-4-yl]-methanone], the IC50 in data set [1] (setting [4]) is 3 nM; in data set [2] (setting [5]) it was 1030 nM; in data set [3], more than 50000 nM.

Take `O=C(c1cccc(Cl)c1-n1nccn1)N1CCOC[C@H]1Cc1cc(-c2ncccn2)ccc1F` [Example 161, (3-Chloro-2-[1,2,3]triazol-2-yl-phenyl)-[(R)-3-(2-fluoro-5-pyrimidin-2-yl-benzyl)-morpholin-4-yl]-methanone]: the IC50 in data set [1] (setting [4]) amounted to 16 nM; in data set [2] (setting [5]), 655 nM; in data set [3], 33000 nM.

With `O=C(c1ccccc1-n1nccn1)N1CCOC[C@H]1Cc1cccc(-c2ncccn2)c1` [Example 18, [(R)-3-(3-Pyrimidin-2-yl-benzyl)-morpholin-4-yl]-(2-[1,2,3]triazol-2-yl-phenyl)-methanone], the half-inhibitory concentration (IC50) in data set [1] (setting [4]) turned out to be 22 nM; in data set [2] (setting [5]), 1890 nM; in data set [3] it was 39000 nM.

For the compound `CC[C@@H]1CN(C(=O)c2ccc(C)cc2-n2nccn2)[C@H](Cc2cccc(-n3nccn3)c2)CO1` [Example 144, [(2R,5R)-2-Ethyl-5-(3-[1,2,3]triazol-2-yl-benzyl)-morpholin-4-yl]-(4-methyl-2-[1,2,3]triazol-2-yl-phenyl)-methanone], the IC50 in data set [1] (setting [4]) is 5 nM; in data set [2] (setting [5]), 104 nM; in data set [3], 9600 nM.

On to `Cc1cccc(C(=O)N2C[C@@H](C)OC[C@H]2Cc2cc(-n3nccn3)ccc2F)c1-n1nccn1` [Example 118, [(2R,5R)-5-(2-Fluoro-5-[1,2,3]triazol-2-yl-benzyl)-2-methyl-morpholin-4-yl]-(3-methyl-2-[1,2,3]triazol-2-yl-phenyl)-methanone], for which the IC50 was 10 nM in data set [1] (setting [4]), 728 nM in data set [2] (setting [5]) and 23000 nM in data set [3].

For the compound `O=C(c1ccc(Cl)cc1-n1nccn1)N1CCOC[C@H]1Cc1cc(-n2nccn2)ccc1Cl` [Example 170, [(R)-3-(2-Chloro-5-[1,2,3]triazol-2-yl-benzyl)-morpholin-4-yl]-(4-chloro-2-[1,2,3]triazol-2-yl-phenyl)-methanone], the IC50 in data set [1] (setting [4]) was 7 nM; in data set [2] (setting [5]) it was 451 nM; in data set [3], 9800 nM.

As for `Cc1ccc(-n2nccn2)c(C(=O)N2C[C@@H](C)OC[C@H]2Cc2cc(-n3nccn3)ccc2F)c1` [Example 115, [(2R,5R)-5-(2-Fluoro-5-[1,2,3]triazol-2-yl-benzyl)-2-methyl-morpholin-4-yl]-(5-methyl-2-[1,2,3]triazol-2-yl-phenyl)-methanone], the IC50 in data set [1] (setting [4]) was found to be 2 nM; in data set [2] (setting [5]) it was 146 nM; in data set [3] it was 24000 nM.

Consider `Cc1ccc(C(=O)N2CCOC[C@H]2Cc2ccc(C)c(-n3nccn3)c2)c(-n2nccn2)c1` [Example 67, [(R)-3-(4-Methyl-3-[1,2,3]triazol-2-yl-benzyl)-morpholin-4-yl]-(4-methyl-2-[1,2,3]triazol-2-yl-phenyl)-methanone], for which the IC50 in data set [1] was determined as 2 nM; in data set [2], 274 nM; in data set [3], 25000 nM.
